This test concerns the target T1, recombinant glucosyltransferase domain of C. difficile Toxin B/TcdB (Clostridioides difficile, UniProt P18177).
T1 construct: 6-His (C); purchased R&D Systems 6246-GT
The test is described as follows: biochemical.

A value given as a limit tells only on which side of the number the result lay.

A word on the IC50: it is the midpoint of a concentration-inhibition curve.

T1 sequence (P18177 1-543): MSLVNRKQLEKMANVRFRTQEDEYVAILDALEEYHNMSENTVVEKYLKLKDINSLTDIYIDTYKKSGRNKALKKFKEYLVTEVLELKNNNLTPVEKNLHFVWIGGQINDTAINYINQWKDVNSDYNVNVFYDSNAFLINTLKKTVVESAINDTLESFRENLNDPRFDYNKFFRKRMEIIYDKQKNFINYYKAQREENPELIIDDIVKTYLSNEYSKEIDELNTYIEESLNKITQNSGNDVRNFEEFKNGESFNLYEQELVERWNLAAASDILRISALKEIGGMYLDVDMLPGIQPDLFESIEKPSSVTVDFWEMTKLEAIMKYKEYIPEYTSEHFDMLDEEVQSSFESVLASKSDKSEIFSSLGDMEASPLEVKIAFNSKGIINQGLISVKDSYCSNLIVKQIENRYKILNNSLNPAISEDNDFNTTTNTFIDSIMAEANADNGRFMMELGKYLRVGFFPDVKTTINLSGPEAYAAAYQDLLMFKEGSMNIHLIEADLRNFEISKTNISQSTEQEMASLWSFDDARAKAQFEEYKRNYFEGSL

`Cc1cnc(NC(=O)[C@H]2CC[C@H](CN3C(=O)c4ccc(Cl)cc4NC(=O)[C@H]3Cc3ccccn3)CC2)cn1` [Example 4cf, (1R,4r)-4-(((R)-8-chloro-2,5-dioxo-3-(pyridin-2-ylmethyl)-2,3-dihydro-1H-benzo[e][1,4]diazepin-4(5H)-yl)methyl)-N-(5-methylpyrazin-2-yl)cyclohexanecarboxamide]: the 50% inhibitory concentration (IC50) was less than 100 nM.

In the case of `COc1ccc(S(=O)(=O)NC(=O)c2ccc(CN3C(=O)c4ccc(Cl)cc4NC(=O)[C@H]3Cc3cccnc3)cc2)cc1` [Example 15d, (R)-4-((8-chloro-2,5-dioxo-3-(pyridin-3-ylmethyl)-2,3-dihydro-1H-benzo[e][1,4]diazepin-4(5H)-yl)methyl)-N-((4-methoxyphenyl)sulfonyl)benzamide], the IC50 was in the range of 1000 to 10000 nM.

Consider `COc1cnc(NC(=O)c2ccc(CN3C(=O)c4ccc(Cl)cc4NC(=O)[C@H]3C)cc2)nc1` [Example 4be, (R)-4-((8-chloro-3-methyl-2,5-dioxo-2,3-dihydro-1H-benzo[e][1,4]diazepin-4(5H)-yl)methyl)-N-(5-methoxypyrimidin-2-yl)benzamide], for which the IC50 is less than 100 nM.

In the case of `COCC(=O)Nc1cc(CN2C(=O)c3ccc(Cl)cc3NC(=O)[C@H]2Cc2ccccn2)ccc1C(=O)O` [Example 22b], the half-maximal inhibitory concentration (IC50) lay within 100 to 999 nM.

For the compound `O=C(Nc1ccc(CN2C(=O)c3ccc(Cl)cc3NC(=O)[C@H]2Cc2ccccn2)cc1)c1ncccc1Cl` [Example 26g], the IC50 lay within 1000 to 10000 nM.

In the case of `O=C1Nc2cc(Cl)ccc2C(=O)N(Cc2ccc3c(c2)CCN(c2ccccn2)C3=O)[C@@H]1Cc1ccccn1` [Example 37a, (R)-8-Chloro-4-((1-oxo-2-(pyridin-2-yl)-1,2,3,4-tetrahydroisoquinolin-6-yl)methyl)-3-(pyridin-2-ylmethyl)-3,4-dihydro-1H-benzo[e][1,4]diazepine-2,5-dione], the IC50 lay in the range of 1000 to 10000 nM.

Regarding `Cc1ccc(NC(=O)c2ccc(CN3C(=O)c4ccc(Cl)cc4NC(=O)C3Cc3cnccn3)cc2)nc1` (centres unmarked) [Example 5x, 4-((8-chloro-2,5-dioxo-3-(pyrazin-2-ylmethyl)-2,3-dihydro-1H-benzo[e][1,4]diazepin-4(5H)-yl)methyl)-N-(5-methylpyridin-2-yl)benzamide], the 50% inhibitory concentration (IC50) is less than 100 nM.

For `COc1ccc(NC(=O)c2ccc(CN3C(=O)c4ccc(Cl)cc4NC(=O)[C@H]3C)cc2)nc1` [Example 4ba, (R)-4-((8-chloro-3-methyl-2,5-dioxo-2,3-dihydro-1H-benzo[e][1,4]diazepin-4(5H)-yl)methyl)-N-(5-methoxypyridin-2-yl)benzamide], the IC50 fell in the range of 100 to 999 nM.

For `O=C(Nc1ccccn1)c1ccc(CN2C(=O)c3ccc(Cl)cc3NC(=O)[C@H]2Cc2ccccn2)cc1Cl` [Example 4cj, (R)-2-chloro-4-((8-chloro-2,5-dioxo-3-(pyridin-2-ylmethyl)-2,3-dihydro-1H-benzo[e][1,4]diazepin-4(5H)-yl)methyl)-N-(pyridin-2-yl)benzamide], the half-inhibitory concentration (IC50) was less than 100 nM.

Consider `O=C(Nc1ccccn1)c1ccc(CN2C(=O)c3ccc(Cl)cc3NC(=O)[C@H]2CCc2ccccc2)cc1` [Example 4g, (R)-4-((8-chloro-2,5-dioxo-3-phenethyl-2,3-dihydro-1H-benzo[e][1,4]diazepin-4(5H)-yl)methyl)-N-(pyridin-2-yl)benzamide], for which the half-maximal inhibitory concentration (IC50) lay within 1000 to 10000 nM.

Consider `Cc1cnc(NC(=O)c2ccc(CN3C(=O)c4ccc(Cl)cc4NC(=O)[C@H]3Cc3cnccn3)cc2)nc1` [Example 5z, 4-((8-chloro-2,5-dioxo-3-(pyrazin-2-ylmethyl)-2,3-dihydro-1H-benzo[e][1,4]diazepin-4(5H)-yl)methyl)-N-(5-methylpyrimidin-2-yl)benzamide], for which the concentration for half-maximal inhibition (IC50) was less than 100 nM.

As to `Cc1ccccc1C[C@@H]1C(=O)Nc2cc(Cl)ccc2C(=O)N1Cc1ccc(C(=O)Nc2ccccn2)cc1` [Example 4ai, (R)-4-((8-chloro-3-(2-methylbenzyl)-2,5-dioxo-2,3-dihydro-1H-benzo[e][1,4]diazepin-4(5H)-yl)methyl)-N-(pyridin-2-yl)benzamide], the IC50 is less than 100 nM.

Take `Cc1ccnc(C(=O)Nc2ccc(CN3C(=O)c4ccc(Cl)cc4NC(=O)[C@H]3Cc3ccccn3)cc2)c1` [Example 26c]: the 50% inhibitory concentration (IC50) is less than 100 nM.

Consider `Cc1ccc(NC(=O)c2ccc(CN3C(=O)c4ccc(Cl)cc4NC(=O)[C@H]3CCN(C)C)cc2)nc1` [Example 10f, (R)-4-((8-chloro-3-(2-(dimethylamino)ethyl)-2,5-dioxo-2,3-dihydro-1H-benzo[e][1,4]diazepin-4(5H)-yl)methyl)-N-(5-methylpyridin-2-yl)benzamide], for which the half-maximal inhibitory concentration (IC50) is 10000 to 35000 nM.

Consider `Cc1ccc(NC(=O)c2ccc(CN3C(=O)c4ccc(Cl)cc4NC(=O)[C@H]3Cc3ccsc3)cc2)nc1` [Example 35b], for which the IC50 was less than 100 nM.

`O=C(O)c1ccc(CN2C(=O)c3ccc(Cl)cc3NC(=O)[C@H]2Cc2ccccn2)cc1-c1ccc(Cl)cc1` [Example 8i, (R)-4′-chloro-5-((8-chloro-2,5-dioxo-3-(pyridin-2-ylmethyl)-2,3-dihydro-1H-benzo[e][1,4]diazepin-4(5H)-yl)methyl)-[1,1′-biphenyl]-2-carboxylic acid]: the IC50 fell in the range of 100 to 999 nM.

On to `O=C(O)c1ccc(CN2C(=O)c3ccc(Cl)cc3NC(=O)[C@H]2Cc2ccccn2)cc1-c1ccncc1` [Example 8a, (R)-4-((8-Chloro-2,5-dioxo-3-(pyridin-2-ylmethyl)-2,3-dihydro-1H-benzo[e][1,4]diazepin-4(5H)-yl)methyl)-2-(pyridin-4-yl)benzoic Acid], for which the half-inhibitory concentration (IC50) lay in the range of 100 to 999 nM.

`O=C(Nc1ccccn1)c1ccc(CN2C(=O)c3ccc(Cl)cc3NC(=O)[C@H]2Cc2ccccc2Cl)cc1` [Example 4w, (R)-4-((8-chloro-3-(2-chlorobenzyl)-2,5-dioxo-2,3-dihydro-1H-benzo[e][1,4]diazepin-4(5H)-yl)methyl)-N-(pyridin-2-yl)benzamide]: the concentration for half-maximal inhibition (IC50) is less than 100 nM.

Turning to `O=C(Nc1ccc(C(F)(F)F)cn1)c1ccc(CN2C(=O)c3ccc(Cl)cc3NC(=O)[C@H]2Cc2ccccn2)cc1` [Example 5q, (R)-4-((8-chloro-2,5-dioxo-3-(pyridin-2-ylmethyl)-2,3-dihydro-1H-benzo[e][1,4]diazepin-4(5H)-yl)methyl)-N-(5-(trifluoromethyl)pyridin-2-yl)benzamide], the IC50 was less than 100 nM.

In the case of `Cn1ccnc1C(=O)c1ccc(CN2C(=O)c3ccc(Cl)cc3NC(=O)[C@H]2Cc2ccccn2)cc1` [Example 31c], the IC50 was in the range of 100 to 999 nM.

In the case of `Cc1cc(C(=O)c2ccc(CN3C(=O)c4ccc(Cl)cc4NC(=O)[C@H]3Cc3ccccn3)cc2)c2nccn2c1` [Example 31e], the IC50 fell in the range of 1000 to 10000 nM.

For the compound `Cc1cnc2c(c1)CCN2C(=O)c1ccc(CN2C(=O)c3ccc(Cl)cc3NC(=O)[C@H]2Cc2ccccn2)cc1F` [Example 6f, (R)-8-chloro-4-(3-fluoro-4-(5-methyl-2,3-dihydro-1H-pyrrolo[2,3-b]pyridine-1-carbonyl)benzyl)-3-(pyridin-2-ylmethyl)-3,4-dihydro-1H-benzo[e][1,4]diazepine-2,5-dione], the 50% inhibitory concentration (IC50) is less than 100 nM.

For `Cn1cc(C(=O)N2CCC(CN3C(=O)c4ccc(Cl)cc4NC(=O)[C@H]3Cc3ccccn3)CC2)c2ncccc21` [Example 43a, (R)-8-Chloro-4-((1-(1-methyl-1H-pyrrolo[3,2-b]pyridine-3-carbonyl)piperidin-4-yl)methyl)-3-(pyridin-2-ylmethyl)-3,4-dihydro-1H-benzo[e][1,4]diazepine-2,5-dione], the IC50 lay in the range of 1000 to 10000 nM.

The values above are taken from patent US10669242B2 (priority 2016, dated 2020).
